Measurements reported in ChEMBL document CHEMBL1153171, “Coumarins as novel 17beta-hydroxysteroid dehydrogenase type 3 inhibitors for potential treatment of prostate cancer” (Bioorg Med Chem Lett, 2010).

Columns and labels:
[1] = target: T1, 17-beta-hydroxysteroid dehydrogenase type 3 (Homo sapiens, UniProt P37058); test: Inhibition of human 17beta-HSD3 expressed in HeLa cells; format: cell-based
T1 sequence (P37058 whole entry): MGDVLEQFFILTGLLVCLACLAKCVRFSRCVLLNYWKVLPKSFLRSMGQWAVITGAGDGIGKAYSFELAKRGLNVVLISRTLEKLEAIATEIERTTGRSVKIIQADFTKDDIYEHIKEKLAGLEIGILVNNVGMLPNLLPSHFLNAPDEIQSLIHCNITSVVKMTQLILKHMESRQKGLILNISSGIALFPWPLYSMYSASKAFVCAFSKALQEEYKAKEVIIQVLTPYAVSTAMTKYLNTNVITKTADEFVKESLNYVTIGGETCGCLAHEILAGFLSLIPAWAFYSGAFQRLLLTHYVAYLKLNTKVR

[2] = target: T2, 17-beta-hydroxysteroid dehydrogenase type 2 (Homo sapiens, UniProt P37059); test: Inhibition of 17beta-HSD2 by human cell based assay
T2 sequence (P37059 whole entry): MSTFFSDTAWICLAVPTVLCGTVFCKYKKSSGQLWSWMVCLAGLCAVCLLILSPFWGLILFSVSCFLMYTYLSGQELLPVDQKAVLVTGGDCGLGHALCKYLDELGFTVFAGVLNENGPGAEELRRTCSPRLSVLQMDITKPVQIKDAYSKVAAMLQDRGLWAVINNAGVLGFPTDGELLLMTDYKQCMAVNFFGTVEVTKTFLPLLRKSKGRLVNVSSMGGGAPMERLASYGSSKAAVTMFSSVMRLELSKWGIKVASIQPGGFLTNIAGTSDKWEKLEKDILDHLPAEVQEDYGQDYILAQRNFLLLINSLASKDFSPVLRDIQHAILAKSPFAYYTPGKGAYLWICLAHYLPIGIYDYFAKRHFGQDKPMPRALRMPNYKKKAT

Estrogen receptor [3] = target: T3, Estrogen receptor (Homo sapiens, UniProt P03372); test: Agonist activity at ER by reporter gene assay; format: functional
T3 sequence (P03372 whole entry): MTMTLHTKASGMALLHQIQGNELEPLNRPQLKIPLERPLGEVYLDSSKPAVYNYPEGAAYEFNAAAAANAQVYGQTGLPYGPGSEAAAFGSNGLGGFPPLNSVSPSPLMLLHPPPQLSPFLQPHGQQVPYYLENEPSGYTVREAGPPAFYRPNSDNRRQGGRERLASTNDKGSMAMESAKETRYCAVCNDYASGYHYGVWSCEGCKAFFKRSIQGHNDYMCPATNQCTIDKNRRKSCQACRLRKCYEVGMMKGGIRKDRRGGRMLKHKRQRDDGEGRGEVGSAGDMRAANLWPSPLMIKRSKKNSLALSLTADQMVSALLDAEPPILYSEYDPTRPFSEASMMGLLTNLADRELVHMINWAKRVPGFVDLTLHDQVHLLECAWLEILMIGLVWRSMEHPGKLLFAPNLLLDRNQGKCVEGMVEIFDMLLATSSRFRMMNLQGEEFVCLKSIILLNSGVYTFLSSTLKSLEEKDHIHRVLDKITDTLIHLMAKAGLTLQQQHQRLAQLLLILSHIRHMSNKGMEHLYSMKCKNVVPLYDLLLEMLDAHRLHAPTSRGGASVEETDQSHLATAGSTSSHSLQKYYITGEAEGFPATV

Glucocorticoid receptor [4] = target: T4, Glucocorticoid receptor (Homo sapiens, UniProt P04150); test: Agonist activity at GR by reporter gene assay; format: functional
T4 sequence (P04150 whole entry): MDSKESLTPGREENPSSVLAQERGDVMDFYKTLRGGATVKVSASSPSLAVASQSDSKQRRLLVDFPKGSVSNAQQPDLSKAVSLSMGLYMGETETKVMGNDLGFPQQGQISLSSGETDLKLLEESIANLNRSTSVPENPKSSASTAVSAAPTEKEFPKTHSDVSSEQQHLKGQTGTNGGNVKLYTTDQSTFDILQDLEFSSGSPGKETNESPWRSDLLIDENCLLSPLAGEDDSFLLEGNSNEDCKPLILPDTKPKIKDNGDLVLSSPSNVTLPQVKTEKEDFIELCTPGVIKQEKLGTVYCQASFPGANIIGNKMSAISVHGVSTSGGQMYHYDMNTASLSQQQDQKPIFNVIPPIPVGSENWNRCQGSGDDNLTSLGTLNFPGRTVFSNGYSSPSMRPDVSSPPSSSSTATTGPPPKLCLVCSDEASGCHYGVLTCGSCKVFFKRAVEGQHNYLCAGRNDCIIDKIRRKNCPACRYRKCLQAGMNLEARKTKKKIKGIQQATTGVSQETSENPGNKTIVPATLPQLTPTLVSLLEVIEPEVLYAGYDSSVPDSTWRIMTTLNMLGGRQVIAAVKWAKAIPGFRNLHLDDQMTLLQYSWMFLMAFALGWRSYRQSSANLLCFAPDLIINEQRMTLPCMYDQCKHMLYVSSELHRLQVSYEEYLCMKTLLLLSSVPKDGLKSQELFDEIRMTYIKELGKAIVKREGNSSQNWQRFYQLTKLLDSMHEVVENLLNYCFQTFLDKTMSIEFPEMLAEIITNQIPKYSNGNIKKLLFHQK

Androgen receptor [5] = target: T5, Androgen receptor (Homo sapiens, UniProt P10275); test: Agonist activity at AR by reporter gene assay; format: functional
T5 sequence (P10275 whole entry): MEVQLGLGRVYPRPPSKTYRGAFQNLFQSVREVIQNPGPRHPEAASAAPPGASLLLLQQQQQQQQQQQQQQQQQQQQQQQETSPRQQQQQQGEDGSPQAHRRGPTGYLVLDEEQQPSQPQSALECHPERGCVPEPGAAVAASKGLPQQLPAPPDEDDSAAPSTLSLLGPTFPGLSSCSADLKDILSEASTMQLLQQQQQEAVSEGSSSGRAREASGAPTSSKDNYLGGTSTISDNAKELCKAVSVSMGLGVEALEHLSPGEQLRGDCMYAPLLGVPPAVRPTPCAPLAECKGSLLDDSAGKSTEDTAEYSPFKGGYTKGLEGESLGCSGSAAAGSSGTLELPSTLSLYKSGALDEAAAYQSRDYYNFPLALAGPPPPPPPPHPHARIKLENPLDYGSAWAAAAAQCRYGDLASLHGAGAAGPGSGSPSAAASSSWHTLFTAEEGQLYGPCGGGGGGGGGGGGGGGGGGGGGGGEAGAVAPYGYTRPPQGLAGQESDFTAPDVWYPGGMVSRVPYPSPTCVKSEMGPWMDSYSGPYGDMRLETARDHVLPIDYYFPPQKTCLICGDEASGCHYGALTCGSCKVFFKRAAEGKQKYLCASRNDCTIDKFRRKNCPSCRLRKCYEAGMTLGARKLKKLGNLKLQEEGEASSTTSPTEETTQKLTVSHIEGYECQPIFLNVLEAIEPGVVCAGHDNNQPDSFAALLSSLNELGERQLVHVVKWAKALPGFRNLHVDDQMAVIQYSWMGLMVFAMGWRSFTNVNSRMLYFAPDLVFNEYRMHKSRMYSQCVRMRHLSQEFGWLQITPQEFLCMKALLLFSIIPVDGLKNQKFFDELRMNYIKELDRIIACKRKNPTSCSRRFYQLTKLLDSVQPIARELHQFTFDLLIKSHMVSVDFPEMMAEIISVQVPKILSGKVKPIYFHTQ

Glucocorticoid receptor [6] = target: T4, Glucocorticoid receptor; test: Antagonist activity at GR by reporter gene assay; format: functional
Estrogen receptor [7] = target: T3, Estrogen receptor; test: Antagonist activity at ER by reporter gene assay; format: functional
Androgen receptor [8] = target: T5, Androgen receptor; test: Antagonist activity at AR by reporter gene assay; format: functional
[9] = target: T6, 17-beta-hydroxysteroid dehydrogenase type 1 (Homo sapiens, UniProt P14061); test: Inhibition of 17beta-HSD1 by human cell based assay
T6 sequence (P14061 whole entry): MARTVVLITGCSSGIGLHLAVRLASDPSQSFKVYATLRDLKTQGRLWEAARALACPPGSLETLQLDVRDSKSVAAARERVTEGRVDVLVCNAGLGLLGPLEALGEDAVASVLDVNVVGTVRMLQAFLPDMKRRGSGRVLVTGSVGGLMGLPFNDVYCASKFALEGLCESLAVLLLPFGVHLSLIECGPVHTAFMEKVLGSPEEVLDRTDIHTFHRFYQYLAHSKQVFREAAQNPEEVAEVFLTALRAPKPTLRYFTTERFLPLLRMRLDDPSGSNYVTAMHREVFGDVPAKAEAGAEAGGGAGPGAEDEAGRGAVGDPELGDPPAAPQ

## O=c1cc(C(F)(F)F)c2ccc(O)cc2o1
[1]
  IC50: 0.19 µM

## Cc1c(C)c2ccc(O)cc2oc1=O
[1]
  IC50: 0.21 µM

## O=c1cc(-c2ccccc2)c2ccc(O)cc2o1
[1]
  IC50: 1 µM

## O=c1cc(CSc2nncs2)c2ccc(O)cc2o1
[1]
  IC50: 0.2 µM

## O=c1cc(CSc2nccs2)c2ccc(O)cc2o1
[1]
  IC50: 0.01 µM

## Cc1cccc(SCc2cc(=O)oc3cc(O)ccc23)n1
[2]
  IC50: Not Active
Estrogen receptor [3]; read-out: IC50
  IC50: 50 µM
Glucocorticoid receptor [4]
  IC50: Not Active
Androgen receptor [5]
  IC50: Not Active
Glucocorticoid receptor [6]
  IC50: Not Active
Estrogen receptor [7]
  IC50: Not Active
[1]
  IC50: 0.0015 µM
Androgen receptor [8]; read-out: IC50
  IC50: 50 µM
[9]
  IC50: Not Active

## Cc1cccc(CCc2cc(=O)oc3cc(O)ccc23)n1
[2]
  IC50: Not Active
Estrogen receptor [3]
  IC50: Not Active
Glucocorticoid receptor [4]
  IC50: Not Active
Androgen receptor [5]
  IC50: Not Active
Glucocorticoid receptor [6]
  IC50: Not Active
Estrogen receptor [7]
  IC50: Not Active
[1]
  IC50: 0.008 µM
Androgen receptor [8]
  IC50: Not Active
[9]
  IC50: Not Active

## Cc1c(Cl)c(=O)oc2cc(O)ccc12
[1]
  IC50: 0.1 µM

## O=c1cc(CSc2ccccn2)c2ccc(O)cc2o1
[1]
  IC50: 0.003 µM

## O=c1cc(CSc2ncccn2)c2ccc(O)cc2o1
[1]
  IC50: 1 µM

## O=c1cc(CSC2NCCS2)c2ccc(O)cc2o1 (stereo not given)
[1]
  IC50: 0.096 µM

## O=c1cc(CSc2ccc([N+](=O)[O-])cn2)c2ccc(O)cc2o1
[1]
  IC50: 0.088 µM

## O=c1cc(CSc2ccc(C(F)(F)F)cn2)c2ccc(O)cc2o1
[1]
  IC50: 0.23 µM

## Cc1cccc(SCc2c(F)c(=O)oc3cc(O)ccc23)n1
[1]
  IC50: 0.027 µM

## Cc1cccc(SCc2c(Cl)c(=O)oc3cc(O)ccc23)n1
[1]
  IC50: 0.047 µM

## O=c1oc2cc(O)ccc2c(C(F)(F)F)c1CSc1ccccn1
[1]
  IC50: 0.32 µM

## CCCc1c(C)c2ccc(O)cc2oc1=O
[1]
  IC50: 0.24 µM

## Cc1c(Cc2ccccc2)c(=O)oc2cc(O)ccc12
[1]
  IC50: 0.2 µM

## O=c1oc2cc(O)ccc2c(C(F)(F)F)c1Cc1ccccc1
[2]
  IC50: Not Active
Estrogen receptor [3]; read-out: IC50
  IC50: 1 µM
Glucocorticoid receptor [4]
  IC50: Not Active
Androgen receptor [5]
  IC50: Not Active
Glucocorticoid receptor [6]
  IC50: Not Active
Estrogen receptor [7]
  IC50: Not Active
[1]
  IC50: 0.03 µM
Androgen receptor [8]; read-out: IC50
  IC50: 6 µM
[9]
  IC50: Not Active

## COCc1cc(=O)oc2cc(O)ccc12
[1]
  IC50: 5 µM

## O=c1cc(Cc2ccccc2)c2ccc(O)cc2o1
[1]
  IC50: 10 µM

## O=c1cc(CCc2ccccc2)c2ccc(O)cc2o1
[1]
  IC50: 0.02 µM

## O=c1cc(COc2ccccc2)c2ccc(O)cc2o1
[1]
  IC50: 10 µM

## O=c1cc(CNc2ccccc2)c2ccc(O)cc2o1
[1]
  IC50: 4 µM

## O=c1cc(CSc2cccs2)c2ccc(O)cc2o1
[1]
  IC50: 0.42 µM

## Cc1cc2ccc(O)cc2oc1=O
[1]
  IC50: 1 µM

## Cc1c(C#N)c(=O)oc2cc(O)ccc12
[1]
  IC50: 1 µM

## Cc1cccc(OCCc2cc(=O)oc3cc(O)ccc23)n1
[1]
  IC50: 1 µM

## CCc1cc(=O)oc2cc(O)ccc12
[1]
  IC50: 0.1 µM

## CN(Cc1cc(=O)oc2cc(O)ccc12)c1ccccc1
[1]
  IC50: 6 µM

## Cn1ccnc1SCc1cc(=O)oc2cc(O)ccc12
[1]
  IC50: 0.091 µM

## O=c1cc(CSc2ccccc2)c2ccc(O)cc2o1
[1]
  IC50: 0.093 µM

## CCCc1cc(=O)oc2cc(O)ccc12
[1]
  IC50: 0.059 µM

## O=c1cc(CSc2ccncc2)c2ccc(O)cc2o1
[1]
  IC50: 5 µM

## Cc1c(F)c(=O)oc2cc(O)ccc12
[1]
  IC50: 1 µM

## Cc1cc(=O)oc2cc(O)ccc12 [HYMECROMONE]
[1]
  IC50: 1 µM
